Where a SMILES comes first, the peptide text is derived from it.
Key:
HOG cells [1] = experiment: Metabolomic profiling (LC-MS, GC-MS) of HOG cell lysates after 2HG treatment or IDH1 shRNA expression; type: cell-based, human; settings: for number of biochemicals with altered levels: 72 hours, HOG cells vs vector, p<0.05
Text: Cell lines. HOG cells were derived from a human WHO grade III anaplastic oligodendroglioma (28) and previously found not to contain exon 4 IDH1 or exon 4 IDH2 mutations (8). The HOG cell line was kindly donated by Dr. A. T. Campagnoni at UCLA. To express IDH1 and IDH2 transgenes in cells, IDH1 and IDH2 cDNAs, or cDNAs mutagenized to IDH1-R132H or IDH2-R172K, were cloned into pLenti6.2/V5 (Invitrogen, Carlsbad, Calif.). Viruses were created using these constructs in 293FT cells and these were used to transduce cells derived from the same parental pool of HOG cells for 24 h. Cells derived from the same clone were reasoned to have homogenous IDH transgene expression levels and metabolic profiles compared to pools of cells or transiently transfected cells, facilitating the identification of metabolites that have altered levels in different clones. Virus was replaced by fresh media for 48 hours and then stable clones were selected from single-cell dilutions in 5 μg/ml blasticidin for 3 weeks. Stable HOG cell lines containing IDH1 shRNA or control were constructed by transfecting HOG cells with pSuperRetro vector (OligoEngine, Seattle, Wash.) containing IDH1-specific hairpin or a scrambled sequence (5′-cat aac gag cgg aag aac g-3′). The IDH1-specific hairpin was created using the primers 5′-gat ccc cGG GAA GTT CTG GTG TCA Tat tca aga gaT ATG ACA CCA GAA CTT CCC ttt ttg gaa a-3′ and 5′-agc ttt tcc aaa aaG GGA AGT TCT GGT GTC ATA tct ctt gaa TAT GAC ACC AGA ACT TCC Cgg g-3′, with capital letters representing bases homologous to IDH1 sequence. Clones were selected with 500 μg/ml G418 for 3 weeks and expanded after single cell dilution. Percent knockdown was determined by ImageJ (v1.43, available at http://rsbweb.nih.gov/ij/, developed by Wayne Rasband, National Institutes of Health, Bethesda, Md.) analysis of the intensity of immunoblot anti-IDH1 bands, normalized to the intensity of anti-GAPDH internal control bands (FIG. S4A). The same clone of vector, IDH1-WT, and IDH1-R132H HOG cells were used in all experiments.
2HG synthesis. 2HG was synthesized by treatment of D-glutamate (Sigma-Aldrich, St. Louis, Mo.) with nitrous acid to form a lactone, which was then hydrolyzed with NaOH solution to form 2-D-hydroxyl glutarate. Purity was 93%. Powder was resuspended in PBS and filtered through a 0.22 μm filter using sterile technique for treatment of cells.
Metabolomic analysis. Cell line treatment: Cells were grown under respective experimental conditions in IMDM media (Gibco, Invitrogen, Carlsbad, Calif.) supplemented with 10% FBS. For the experiment in FIG. 2, cells were grown in a media mix that also contained either 10% PBS or 10% of a 300 mM or 75 mM 2HG solution in PBS for a final 30 mM or 7.5 mM 2HG. Cells were seeded into flasks three days before harvesting. To harvest cells, media was removed, monolayers were washed with PBS, and 0.05% trypsin/EDTA was added. Cells were incubated for 20 min at 37° C. or until cells detached. Two volumes of media were added to the Trypsin/cell mix and suspended by gentle pipetting and triteration. Cells were counted, and 10^7 cells per sample were spun down at 1000 rpm×3 min in a polystyrene tube. Cells were washed twice with PBS and then snap-frozen on dry ice and stored at −80° C. until analysis.
Metabolite analysis: Metabolomic profiling analysis of all samples was carried out in collaboration with Metabolon (Durham, N.C.) as described previously (29-31), as follows:
Sample Preparation: The sample preparation process was carried out using the automated MicroLabSTAR® system (Hamilton Company, Reno, Nev.). Recovery standards were added prior to the first step in the extraction process for QC purposes. Sample preparation was conducted using a proprietary series of organic and aqueous extractions to remove the protein fraction while allowing maximum recovery of small molecules. The resulting extract was divided into two fractions; one for analysis by LC and one for analysis by GC. […]

[2] = test system: complex V (ATP synthase) of the mitochondrial electron transport chain; settings: chick neurons; reference 27; cited from earlier work
HOG cells [3] = experiment: Targeted LC-MS/MS of NAA and NAAG in HOG cells incubated with NAA or NAAG media; type: cell-based, human
Experimental: Targeted mass LC-MS/MS. Simultaneous quantification of NAA and NAAG in cell culture media, cell lysates, and tissues was done by liquid chromatography-electrospray ionization-tandem mass spectrometry (LC-ESI-MS/MS).
Sample preparation. Media above the cells and cell lysates: To 20 μL of sample 40 μL of ice-cold methanol was added, mixture vigorously agitated (FastPrep, Qbiogene, Carlsbad, Calif. 20 s, speed 6), left at −20° C. for 15 min, agitated again (same cond.), centrifuged at 16,000 g for 5 min, and 50 μL of supernatant dried by vacuum centrifuge (50° C., 1 hr, SpeedVac, Thermo Scientific, West Palm Beach, Fla.). The dry residue was dissolved by 50 μL of mobile phase A (see below) and 10 μL injected into LC-MS/MS system. Tissue samples: To […] sample of wet tissue, 300 μL of deionized water and one 4 mm ceramic bead was added in 2-mL polypropylene tube and vigorously agitated (FastPrep, 20 s, speed 4, 2 cycles). A 50 μL aliquot of the homogenate was pipetted out for total protein measurement (for tissue mass normalization purpose) and 500 μL methanol added to the original vial which was again agitated (FastPrep, same conditions), left at −20° C. for 15 min, centrifuged at 16,000 g for 5 min, and 650 μL of supernatant dried by vacuum centrifuge (SpeedVac, 50° C., 1.5 hr). The dry residue was dissolved by 50 μL of mobile phase A (see below) and 10 μL injected into LC-MS/MS system.
LC-MS/MS analysis. Equipment: Agilent 1200 series HPLC (Santa Clara, Calif.) and Sciex/Applied Biosystems API 3200 QTrap (Carlsbad, Calif.). Mobile phase A: water, 3% methanol; mobile phase B: acetonitrile/methanol, 1/1. Analytical column: Kinetex C18, 150×4.6 mm, 2.6 μm, and SafeGuard C18 4×3 mm guard-column from Phenomenex (Torrance, Calif.). Column temperature: 45° C. Elution gradient at 1 mL/min flow rate: 0-1 min 0% B, 1-2 min 0-80% B, 2-3.5 min 80% B, 3.5-4 min 80-0% B, 4-10 min 0% B. Injection volume: 10 μL. The Q1/Q3 (m/z) transitions monitored in positive electrospray ionization mode: 176/158 (NAA, quantification), 176/134 (NAA, confirmation), 305/148 (NAAG, quantification), 305/130 (NAAG, confirmation).
Calibration. A set of calibrator samples in corresponding matrix was prepared for calibration by adding appropriate amounts of pure NAA and NAAG at the following concentration levels: 0, 0.01, 0.05, 0.25, 1.25, and 6.25 μg/mL. These samples were analyzed alongside the experimental samples and accuracy acceptance criteria was 85% for each but the lowest level (0.01 μg/mL, 80%). The limit of quantification (at 80% accuracy criterion) was determined to be 10 ng/ml for both NAA and NAAG. Samples in which NAA or NAAG was not detected were assigned to have a value of 0 NAA or NAAG (FIG. 5A,B). Statistically significant differences that we reported (FIG. 5A,B) were still significant when 10 ng/ml was assigned for samples in which NAA or NAAG was not detected. Quadratic least squares regression curve fit was employed to account for slight but predictable nonlinearity (ESI of highly polar analytes) with 1/x weighing factor. The addition of methanol to the sample matrix is shared with a recently reported NAAG analysis method (32). Otherwise this procedure is, to the best of our knowledge, novel.
Univariate statistics. Welch's t-test was used to determine whether mean levels of a biochemical in one experimental group were different from mean levels in another group. […]

[4] = 30 mM 2HG-treated HOG cells vs vector, p<0.001

O=C(O)CC[C@@H](O)C(=O)O [2HG, 2-D-hydroxyl glutarate]
number of biochemicals with altered levels (HOG cells [1]; 7.5 mM 2HG): 117 | 2HG elevation (intracellular) (HOG cells [1]; 30 mM 2HG group, HOG lysate vs vector, p<0.001): 54 fold | number of biochemicals with altered levels (HOG cells [1]; 30 mM 2HG): 130 | reduced and oxidized glutathione (HOG cells [1]; 30 mM 2HG-treated HOG cells vs vector): not significantly affected | α-ketoglutarate higher (HOG cells [1]; 30 mM 2HG-treated HOG cells vs vector, non-significant, p=0.10): 1.3 fold | N-acetyl-aspartate (NAA) lower (HOG cells [1]; 30 mM 2HG-treated HOG cells vs vector, not significantly changed, p=0.38): 1.1 fold | GPC higher (HOG cells [1]; [4]): 3.0 fold | NAAG lower (HOG cells [1]; [4]): 1.8 fold | choline phosphate lower (HOG cells [1]; [4]): 100 fold | glutamate increased (HOG cells [1]; 30 mM 2HG-treated HOG cells vs vector, p=0.002): 1.4 fold | effect on complex V (ATP synthase) [2]: impair

CC(=O)N[C@@H](CC(=O)O)C(=O)O [NAA, N-acetyl-aspartate]
level of NAA in IDH1-R132H expressing cells (HOG cells [3]; HOG IDH1-R132H cells, 100 μM NAA media, 48 hours): increased the level of NAA in IDH1-R132H expressing cells to the normal level of NAA in the vector control | intracellular NAA levels compared to controls (HOG cells [3]; HOG cells in media containing 100 μM NAA, 48 hours): higher | NAAG in HOG cells expressing IDH1-R132H (HOG cells [3]; after NAA treatment (100 μM NAA media, 48 hours)): did not increase

CC(=O)N[C@@H](CC(=O)O)C(=O)N[C@@H](CCC(=O)O)C(=O)O [NAAG, N-acetyl-aspartyl-glutamate] (Ac-Asp-Glu-OH)
NAA levels in NAAG-treated cells (HOG cells [3]; 10 μM NAAG, all groups (vector, IDH1-WT, IDH1-R132H)): modestly increased | intracellular NAAG levels compared to the no treatment group (HOG cells [3]; HOG cells treated with 10 μM NAAG, 48 hours): increased

From patent US20120202883A1, “EFFECTS OF IDH1 AND IDH2 MUTATIONS ON THE CELLULAR METABOLOME” (DUKE UNIVERSITY, priority 2011, published 2012)
